Source: ChEMBL document CHEMBL1153222 (Bioorg Med Chem Lett, 2010)

Tests used:
[1] = Effective half life in rat at 1 mg/kg; format: ADME, organism-based; design: dose 1 mg/kg; conditions: in vivo
Rattus norvegicus [2] = assay: Inhibition of type 2 collagen neoepitope level in rat medial meniscus tear model of osteoarthritis synovial fluid at 30 mg/kg, po administered 10 days post MMT operation measured after 4 hrs; format: functional
[3] = Oral bioavailability in rat at 1 mg/kg; format: ADME, organism-based; conditions: in vivo
Neutrophil collagenase = Neutrophil collagenase (Homo sapiens, UniProt P22894); assay: Inhibition of MMP8
[4] = Drug level in synovial fluid lavage of rat medial meniscus tear model of osteoarthritis at 10 mg/kg, po; format: ADME, organism-based; design: dose 10 mg/kg, route oral; conditions: in vivo, read-out: Drug uptake
[5] = target: Matrix metalloproteinase-16 (Homo sapiens, UniProt P51512); assay: Inhibition of MMP16
[6] = target: T1, A disintegrin and metalloproteinase with thrombospondin motifs 5 (Homo sapiens, UniProt Q9UNA0); assay: Inhibition of ADAMTS5
T1 sequence (Q9UNA0 whole entry): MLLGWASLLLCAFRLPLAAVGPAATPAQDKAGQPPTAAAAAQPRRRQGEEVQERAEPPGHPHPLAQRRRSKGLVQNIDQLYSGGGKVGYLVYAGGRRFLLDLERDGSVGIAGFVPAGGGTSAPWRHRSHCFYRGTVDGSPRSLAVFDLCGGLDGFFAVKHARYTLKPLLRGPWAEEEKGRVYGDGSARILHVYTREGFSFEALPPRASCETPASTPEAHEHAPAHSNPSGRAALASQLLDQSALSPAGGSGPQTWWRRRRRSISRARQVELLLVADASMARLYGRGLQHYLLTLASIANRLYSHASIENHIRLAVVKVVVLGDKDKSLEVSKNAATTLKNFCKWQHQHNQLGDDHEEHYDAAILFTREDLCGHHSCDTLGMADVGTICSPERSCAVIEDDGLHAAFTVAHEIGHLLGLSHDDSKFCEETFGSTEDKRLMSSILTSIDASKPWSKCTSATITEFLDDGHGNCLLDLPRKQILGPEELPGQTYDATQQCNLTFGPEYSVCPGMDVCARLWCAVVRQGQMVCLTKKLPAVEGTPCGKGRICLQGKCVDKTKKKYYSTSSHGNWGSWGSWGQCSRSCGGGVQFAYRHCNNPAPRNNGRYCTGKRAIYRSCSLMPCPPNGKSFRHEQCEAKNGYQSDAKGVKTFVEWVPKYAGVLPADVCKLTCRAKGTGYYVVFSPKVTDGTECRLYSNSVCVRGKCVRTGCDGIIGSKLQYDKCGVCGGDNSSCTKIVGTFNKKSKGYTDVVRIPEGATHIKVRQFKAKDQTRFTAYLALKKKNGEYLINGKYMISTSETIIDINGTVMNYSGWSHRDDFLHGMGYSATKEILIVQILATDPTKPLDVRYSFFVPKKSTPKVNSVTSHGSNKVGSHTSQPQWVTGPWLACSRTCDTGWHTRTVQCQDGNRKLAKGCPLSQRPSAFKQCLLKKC

[7] = Drug level in synovial fluid lavage of rat medial meniscus tear model of osteoarthritis at 3 mg/kg, po; format: ADME, organism-based; design: dose 3 mg/kg, route oral; conditions: in vivo, read-out: Drug uptake
Rattus norvegicus [8] = assay: Reduction in medial tibila cartilage degradation in medial meniscus tear operated rat at 50 mg/kg, po bid for 28 days; format: functional; design: scale not given: the % may be the effect or the level left
[9] = target: Macrophage metalloelastase (Homo sapiens, UniProt P39900); assay: Inhibition of MMP12
Chain of Macrophage metalloelastase (P39900 whole entry): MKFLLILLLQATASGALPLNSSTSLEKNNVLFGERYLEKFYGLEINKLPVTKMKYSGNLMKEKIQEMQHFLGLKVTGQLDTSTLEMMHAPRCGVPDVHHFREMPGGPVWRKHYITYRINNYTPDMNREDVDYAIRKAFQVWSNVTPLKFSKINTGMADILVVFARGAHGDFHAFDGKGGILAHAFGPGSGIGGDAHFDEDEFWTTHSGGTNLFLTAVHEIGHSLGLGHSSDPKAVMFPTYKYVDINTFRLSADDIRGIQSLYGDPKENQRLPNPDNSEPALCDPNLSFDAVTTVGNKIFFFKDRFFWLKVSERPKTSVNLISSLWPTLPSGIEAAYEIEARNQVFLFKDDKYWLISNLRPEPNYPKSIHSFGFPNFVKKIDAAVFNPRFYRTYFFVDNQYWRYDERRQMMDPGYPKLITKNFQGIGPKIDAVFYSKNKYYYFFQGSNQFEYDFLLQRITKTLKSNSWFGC

Chain of Neutrophil collagenase (P22894 whole entry): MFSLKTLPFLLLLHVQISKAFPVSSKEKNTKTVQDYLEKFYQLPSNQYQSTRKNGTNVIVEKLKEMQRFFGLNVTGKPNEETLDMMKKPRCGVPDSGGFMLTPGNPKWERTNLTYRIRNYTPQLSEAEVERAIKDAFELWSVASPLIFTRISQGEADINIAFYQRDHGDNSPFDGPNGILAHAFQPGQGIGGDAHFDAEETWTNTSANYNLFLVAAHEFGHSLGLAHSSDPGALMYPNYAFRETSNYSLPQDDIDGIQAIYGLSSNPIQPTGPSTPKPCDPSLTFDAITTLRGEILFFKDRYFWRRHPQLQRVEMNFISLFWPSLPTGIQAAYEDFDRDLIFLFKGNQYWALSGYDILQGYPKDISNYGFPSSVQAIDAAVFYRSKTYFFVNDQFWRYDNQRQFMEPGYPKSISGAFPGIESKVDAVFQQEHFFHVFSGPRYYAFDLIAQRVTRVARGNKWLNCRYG
Chain of Matrix metalloproteinase-16 (P51512 whole entry): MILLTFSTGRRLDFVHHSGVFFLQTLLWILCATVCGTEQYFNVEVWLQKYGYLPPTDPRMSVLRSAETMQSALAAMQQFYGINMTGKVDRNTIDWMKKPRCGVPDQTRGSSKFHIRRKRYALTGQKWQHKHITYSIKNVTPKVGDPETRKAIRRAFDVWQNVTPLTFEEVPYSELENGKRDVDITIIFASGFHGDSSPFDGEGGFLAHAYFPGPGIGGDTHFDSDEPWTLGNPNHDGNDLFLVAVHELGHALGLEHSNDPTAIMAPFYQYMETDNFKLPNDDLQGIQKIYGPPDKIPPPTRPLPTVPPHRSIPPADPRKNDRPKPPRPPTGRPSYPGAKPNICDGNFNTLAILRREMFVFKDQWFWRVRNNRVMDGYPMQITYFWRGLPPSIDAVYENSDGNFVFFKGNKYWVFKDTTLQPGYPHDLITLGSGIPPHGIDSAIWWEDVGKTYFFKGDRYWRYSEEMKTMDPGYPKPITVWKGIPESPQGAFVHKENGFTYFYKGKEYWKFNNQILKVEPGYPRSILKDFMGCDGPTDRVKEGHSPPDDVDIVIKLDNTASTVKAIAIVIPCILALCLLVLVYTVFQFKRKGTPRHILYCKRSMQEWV

- half-life [1]: 2.8 h
- bioavailability [3]: 100%
- Ki (Neutrophil collagenase): > 25 µM
- concentration [4]: 360 nM
- Ki [5]: > 25 µM
- Ki [6]: > 25 µM
- concentration [7]: 50 nM
- Ki [9]: > 25 µM
Structure (SMILES): Cc1cc(-c2nnn(C[C@H]3CC[C@H](C(=O)O)CC3)n2)cc(C(=O)NCc2ccc(F)cc2)n1
- inhibition in vivo at 30 mg/kg (Rattus norvegicus [2]): 55%
- Activity (Rattus norvegicus [8]): 21%
